Legend:
rat [1] = details: Multigenerational reproductive toxicity study, sprague dawley, Oral, Gavage/Intubation, dose end: 2 generation
mouse [2] = details: Prenatal developmental toxicity study, cd1, Oral, Gavage/Intubation, dose end: 15 GD
rat [3] = details: Prenatal developmental toxicity study, fischer, Oral, Gavage/Intubation, dose end: 15 GD
rat [4] = details: Multigenerational reproductive toxicity study, sprague dawley, Oral, Gavage/Intubation, dose end: 2 generation; remark: listed apart in the source
rat [5] = details: Multigenerational reproductive toxicity study, sprague dawley, Oral, Feed, dose end: 2 generation
rat [6] = details: Subchronic oral toxicity in rodents, fischer, Feed, dose end: 13 week
dog = details: Subchronic oral toxicity in nonrodent, beagle, Feed, dose end: 13 week
mouse [7] = details: Carcinogenicity, cd1, Oral, Feed, dose end: 78 week
rat [8] = details: Multigenerational reproductive toxicity study, sprague dawley, Oral, Feed, dose end: 2 generation; remark: listed apart in the source
rat [9] = details: Combined chronic toxicity/carcinogenicity, fischer, Oral, Feed, dose end: 24 month
rat [10] = details: Prenatal developmental toxicity study, sprague dawley, Oral, Gavage/Intubation, dose end: 15 GD
[11] = group: offspring, developmental / offspring survival late / viability index / viability index + systemic / in life observation / body weight / offspring (pup…
[12] = group: offspring, systemic / in life observation / body weight / offspring (pup) weight + systemic / in life observation / body weight / offspring (pup) …
[13] = group: parental, systemic / in life observation / body weight / body weight gain + systemic / in life observation / clinical signs / [other] + systemic / in …
[14] = group: parental, systemic / in life observation / clinical signs / reduced activity + systemic / in life observation / body weight / body weight gain + …
[15] = group: reproductive, reproductive / reproductive performance / estrous cycle / length + reproductive / reproductive performance / pregnancy index / pregnancy …
[16] = group: developmental, developmental / developmental malformation / general / [other] + systemic / in life observation / body weight / fetal weight
[17] = group: developmental, systemic / in life observation / body weight / fetal weight
[18] = group: maternal, reproductive / reproductive performance / resorptions / resorptions + systemic / in life observation / body weight / body weight + systemic…
[19] = group: maternal, systemic / in life observation / clinical signs / hunched posture + systemic / in life observation / clinical signs / lacrimation + systemic…
[20] = group: offspring, systemic / in life observation / body weight / offspring (pup) weight
[21] = group: parental, systemic / in life observation / clinical signs / reduced activity
[22] = group: parental, systemic / in life observation / clinical signs / reduced activity + systemic / organ weight / adrenal gland / relative to body weight + …
[23] = group: reproductive, reproductive / offspring survival early / litter size / litter size + reproductive / offspring survival early / live fetuses / live fetuses
[24] = group: reproductive, reproductive / reproductive performance / gestational length / gestational length + reproductive / reproductive performance / pregnancy …
[25] = group: cholinesterase, cholinesterase / cholinesterase / cholinesterase / erythrocyte cholinesterase (che) + cholinesterase / cholinesterase / cholinesterase / …
[26] = group: offspring, developmental / offspring survival late / lactation index / lactation index + systemic / in life observation / body weight / offspring (pup…
[27] = group: parental, systemic / pathology microscopic / adrenal gland / [other] + systemic / pathology microscopic / adrenal gland / vacuolization + systemic / …
[28] = group: cholinesterase, cholinesterase / cholinesterase / cholinesterase / plasma cholinesterase (che)
[29] = group: systemic, systemic / hematology / platelet / platelet + systemic / organ weight / adrenal gland / absolute + systemic / organ weight / testes / …
[30] = group: systemic, systemic / pathology microscopic / adrenal gland / hypertrophy + systemic / pathology microscopic / adrenal gland / necrosis + systemic / …
[31] = group: cholinesterase, cholinesterase / cholinesterase / cholinesterase / plasma cholinesterase (che) + cholinesterase / cholinesterase / cholinesterase / …
[32] = group: systemic, systemic / clinical chemistry / albumin / albumin + systemic / clinical chemistry / alkaline phosphatase (alp/alk) / alkaline phosphatase (…
[33] = group: cholinesterase, cholinesterase / cholinesterase / cholinesterase / brain cholinesterase (che) + cholinesterase / cholinesterase / cholinesterase / …
[34] = group: systemic, systemic / urinalysis / protein / protein
[35] = group: cholinesterase, cholinesterase / cholinesterase / cholinesterase / erythrocyte cholinesterase (che)
[36] = group: offspring, systemic / organ weight / spleen / absolute + systemic / organ weight / spleen / relative to body weight
[37] = group: parental, systemic / pathology microscopic / adrenal gland / vacuolization cytoplasmic + systemic / organ weight / adrenal gland / absolute + systemic…
[38] = group: systemic, systemic / pathology microscopic / pituitary gland / adenoma + systemic / pathology microscopic / uterus / polyp stromal + systemic / …
[39] = group: maternal, systemic / organ weight / placenta / absolute

CN(C)CCCN1c2ccccc2Sc2ccc(Cl)cc21.Cl [Chlorpromazine hydrochloride]
LOAEL (rat [1]; [11]): > 100 mg/kg/day | NOAEL (rat [1]; [11]): ≥ 100 mg/kg/day | LEL (rat [1]; [12]): 12.5 mg/kg/day | NEL (rat [1]; [12]): < 12.5 mg/kg/day | LOAEL (rat [1]; [13]): > 100 mg/kg/day | NOAEL (rat [1]; [13]): ≥ 100 mg/kg/day | LEL (rat [1]; [14]): 12.5 mg/kg/day | NEL (rat [1]; [14]): < 12.5 mg/kg/day | LEL (rat [1]; group: reproductive, reproductive / reproductive performance / estrous cycle / length): 25 mg/kg/day | LOAEL (rat [1]; [15]): > 100 mg/kg/day | NEL (rat [1]; [15]): 12.5 mg/kg/day | NOAEL (rat [1]; [15]): ≥ 100 mg/kg/day | LOAEL (mouse [2]; [16]): > 30 mg/kg/day | NEL (mouse [2]; [16]): 5 mg/kg/day | NOAEL (mouse [2]; [16]): ≥ 30 mg/kg/day | LEL (mouse [2]; [17]): 15 mg/kg/day | LOAEL (mouse [2]; [18]): > 30 mg/kg/day | NEL (mouse [2]; [18]): 5 mg/kg/day | NOAEL (mouse [2]; [18]): ≥ 30 mg/kg/day | LEL (mouse [2]; group: maternal, systemic / in life observation / body weight / body weight + systemic / in life observation / body weight / body weight gain): 15 mg/kg/day | LEL (rat [3]; [17]): 5 mg/kg/day | LOAEL (rat [3]; [17]): > 45 mg/kg/day | NEL (rat [3]; [17]): < 5 mg/kg/day | NOAEL (rat [3]; [17]): ≥ 45 mg/kg/day | LOAEL (rat [3]; [18]): > 45 mg/kg/day | NOAEL (rat [3]; [18]): ≥ 45 mg/kg/day | LEL (rat [3]; [19]): 5 mg/kg/day | NEL (rat [3]; [19]): < 5 mg/kg/day | LOAEL (rat [4]; [11]): > 100 mg/kg/day | NOAEL (rat [4]; [11]): ≥ 100 mg/kg/day | LEL (rat [4]; [20]): 12.5 mg/kg/day | NEL (rat [4]; [20]): < 12.5 mg/kg/day | LEL (rat [4]; [21]): 12.5 mg/kg/day | NEL (rat [4]; [21]): < 12.5 mg/kg/day | LOAEL (rat [4]; [22]): > 100 mg/kg/day | NOAEL (rat [4]; [22]): ≥ 100 mg/kg/day | LEL (rat [4]; [23]): 12.5 mg/kg/day | NEL (rat [4]; [23]): < 12.5 mg/kg/day | LOAEL (rat [4]; [24]): > 100 mg/kg/day | NOAEL (rat [4]; [24]): ≥ 100 mg/kg/day

COP(=S)(OC)Oc1nc(Cl)c(Cl)cc1Cl [Chlorpyrifos-methyl]
LEL (rat [5]; [25]): 1 mg/kg/day | LOAEL (rat [5]; [25]): 1 mg/kg/day | NEL (rat [5]; [25]): 0.1 mg/kg/day | NOAEL (rat [5]; [25]): 0.1 mg/kg/day | LEL (rat [5]; [26]): 5 mg/kg/day | LOAEL (rat [5]; [26]): 5 mg/kg/day | NEL (rat [5]; [26]): 1 mg/kg/day | NOAEL (rat [5]; [26]): 1 mg/kg/day | NEL (rat [5]; group: parental, systemic / pathology microscopic / adrenal gland / [other] + systemic / pathology microscopic / adrenal gland / vacuolization): 1 mg/kg/day | LEL (rat [5]; [27]): 5 mg/kg/day | LOAEL (rat [5]; [27]): > 5 mg/kg/day | NOAEL (rat [5]; [27]): ≥ 5 mg/kg/day | LEL (rat [6]; [28]): 0.1 mg/kg/day | LOAEL (rat [6]; [28]): 0.1 mg/kg/day | NEL (rat [6]; [28]): < 0.1 mg/kg/day | NOAEL (rat [6]; [28]): < 0.1 mg/kg/day | LEL (rat [6]; [29]): 0.1 mg/kg/day | NEL (rat [6]; [29]): < 0.1 mg/kg/day | LOAEL (rat [6]; [30]): 10 mg/kg/day | NOAEL (rat [6]; [30]): 1 mg/kg/day | LEL (dog; [28]): 0.1 mg/kg/day | NEL (dog; [28]): < 0.1 mg/kg/day | LOAEL (dog; [31]): 10 mg/kg/day | NOAEL (dog; [31]): 0.1 mg/kg/day | LEL (dog; [32]): 50 mg/kg/day | LOAEL (dog; [32]): 50 mg/kg/day | NEL (dog; [32]): 10 mg/kg/day | NOAEL (dog; [32]): 10 mg/kg/day | LEL (mouse [7]; [33]): 3.94 mg/kg/day | LOAEL (mouse [7]; [33]): 3.94 mg/kg/day | NEL (mouse [7]; [33]): 0.403 mg/kg/day | NOAEL (mouse [7]; [33]): 0.403 mg/kg/day | LOAEL (mouse [7]; group: systemic, systemic / pathology microscopic / liver / fatty change): 41.5 mg/kg/day | NOAEL (mouse [7]; group: systemic, systemic / pathology microscopic / liver / fatty change + systemic / clinical chemistry / alkaline phosphatase (alp/alk) / alkaline …): 3.94 mg/kg/day | LEL (mouse [7]; [34]): 0.0816 mg/kg/day | NEL (mouse [7]; [34]): < 0.0816 mg/kg/day | LEL (rat [8]; [35]): 1 mg/kg/day | LOAEL (rat [8]; [35]): 1 mg/kg/day | NEL (rat [8]; [35]): < 1 mg/kg/day | NOAEL (rat [8]; [35]): < 1 mg/kg/day | LEL (rat [8]; [36]): 10 mg/kg/day | LOAEL (rat [8]; [36]): > 10 mg/kg/day | NEL (rat [8]; [36]): 3 mg/kg/day | NOAEL (rat [8]; [36]): ≥ 10 mg/kg/day | LOAEL (rat [8]; group: parental, systemic / pathology microscopic / adrenal gland / vacuolization cytoplasmic): 3 mg/kg/day | LEL (rat [8]; [37]): 3 mg/kg/day | NEL (rat [8]; [37]): 1 mg/kg/day | NOAEL (rat [8]; [37]): 1 mg/kg/day | LEL (rat [9]; [35]): 0.1 mg/kg/day | LOAEL (rat [9]; [25]): 1 mg/kg/day | NEL (rat [9]; [25]): 0.05 mg/kg/day | NOAEL (rat [9]; [25]): 0.1 mg/kg/day | LEL (rat [9]; group: systemic, systemic / pathology microscopic / pituitary gland / adenoma): 0.1 mg/kg/day | LOAEL (rat [9]; group: systemic, systemic / pathology microscopic / pituitary gland / adenoma + systemic / pathology microscopic / adrenal gland / vacuolization): 1 mg/kg/day | NEL (rat [9]; [38]): 0.05 mg/kg/day | NOAEL (rat [9]; [38]): 0.1 mg/kg/day

O=C1CCCO1 [4-Butyrolactone]
LEL (rat [10]; [17]): 50 mg/kg/day | LOAEL (rat [10]; [17]): > 500 mg/kg/day | NEL (rat [10]; [17]): 10 mg/kg/day | NOAEL (rat [10]; [17]): ≥ 500 mg/kg/day | LEL (rat [10]; [39]): 10 mg/kg/day | LOAEL (rat [10]; [39]): > 500 mg/kg/day | NEL (rat [10]; [39]): < 10 mg/kg/day | NOAEL (rat [10]; [39]): ≥ 500 mg/kg/day

From EPA's ToxRefDB 2
